Experimental data from patent publication US20260217698A1 (BEYANG THERAPEUTICS CO., LTD., priority 2022, published 2026).
≈ marks a conversion by molar mass, not a printed value. Values belong to the molecule of their own block, whether it stands above or below them.

What was measured:
TIE2 = target: T1, TIE2 (Homo sapiens, UniProt Q02763); assay: Kinase inhibition, Mobility Shift Assay/IMAP, TIE2; assay type: biochemical
T1 construct: purchased BPS 40270
In short: (§1)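 Substrate conversion (phosphorylated vs non-phosphorylated) read by mobility shift on Caliper EZ Reader II and converted to % inhibition relative to no-enzyme and DMSO controls. IC50 fitted from % inhibition versus log compound concentration.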

EGFR = target: T2, EGFR (Homo sapiens, UniProt P00533); assay: Kinase inhibition, Mobility Shift Assay/IMAP, EGFR; assay type: biochemical
T2 construct: purchased Carna 08-115
In short: as §1

VEGFR1 = target: T3, VEGFR1 (Homo sapiens, UniProt P17948); assay: Kinase inhibition, Mobility Shift Assay/IMAP, VEGFR1; assay type: biochemical
T3 construct: purchased Invitrogen PR6731B
In short: as §1

HUVEC cells = assay: Inhibition of VEGF-induced HUVEC cell proliferation, CellTiter Glo; assay type: cell-based; conditions: Homo sapiens, 20 ng/ml VEGF, 72 hours
In short: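 HUVEC (4000/well) serum-starved overnight in RPMI-1640 with 5% FBS, compound added 1 h before VEGF (20 ng/ml final in controls). After 72 h at 37 °C, viable cells were quantified by CellTiter-Glo luminescence; % inhibition fitted against log concentration, DMSO+VEGF wells as high control and cell-free wells as low.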

VEGFR3 = target: T4, VEGFR3 (Homo sapiens, UniProt P35916); assay: Kinase inhibition, Mobility Shift Assay/IMAP, VEGFR3; assay type: biochemical
T4 construct: purchased Invitrogen PV4129
In short: as §1

[1] = Solubility test in buffer, LC-MS; assay type: physicochemical; conditions: aqueous buffer, thermodynamic from solid, room temperature, shaking 8 h, pH not given (method: pH 2.0, 6.5, 7.4)
In short: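 Compound at 2 mg/mL in buffers of pH 2.0, 6.5 and 7.4, sonicated, shaken 8 h at room temperature, then centrifuged at 13,000 rpm. Supernatant quantified by LC-MS against a 3–5 point calibration.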

T4 sequence (P35916 25-1363): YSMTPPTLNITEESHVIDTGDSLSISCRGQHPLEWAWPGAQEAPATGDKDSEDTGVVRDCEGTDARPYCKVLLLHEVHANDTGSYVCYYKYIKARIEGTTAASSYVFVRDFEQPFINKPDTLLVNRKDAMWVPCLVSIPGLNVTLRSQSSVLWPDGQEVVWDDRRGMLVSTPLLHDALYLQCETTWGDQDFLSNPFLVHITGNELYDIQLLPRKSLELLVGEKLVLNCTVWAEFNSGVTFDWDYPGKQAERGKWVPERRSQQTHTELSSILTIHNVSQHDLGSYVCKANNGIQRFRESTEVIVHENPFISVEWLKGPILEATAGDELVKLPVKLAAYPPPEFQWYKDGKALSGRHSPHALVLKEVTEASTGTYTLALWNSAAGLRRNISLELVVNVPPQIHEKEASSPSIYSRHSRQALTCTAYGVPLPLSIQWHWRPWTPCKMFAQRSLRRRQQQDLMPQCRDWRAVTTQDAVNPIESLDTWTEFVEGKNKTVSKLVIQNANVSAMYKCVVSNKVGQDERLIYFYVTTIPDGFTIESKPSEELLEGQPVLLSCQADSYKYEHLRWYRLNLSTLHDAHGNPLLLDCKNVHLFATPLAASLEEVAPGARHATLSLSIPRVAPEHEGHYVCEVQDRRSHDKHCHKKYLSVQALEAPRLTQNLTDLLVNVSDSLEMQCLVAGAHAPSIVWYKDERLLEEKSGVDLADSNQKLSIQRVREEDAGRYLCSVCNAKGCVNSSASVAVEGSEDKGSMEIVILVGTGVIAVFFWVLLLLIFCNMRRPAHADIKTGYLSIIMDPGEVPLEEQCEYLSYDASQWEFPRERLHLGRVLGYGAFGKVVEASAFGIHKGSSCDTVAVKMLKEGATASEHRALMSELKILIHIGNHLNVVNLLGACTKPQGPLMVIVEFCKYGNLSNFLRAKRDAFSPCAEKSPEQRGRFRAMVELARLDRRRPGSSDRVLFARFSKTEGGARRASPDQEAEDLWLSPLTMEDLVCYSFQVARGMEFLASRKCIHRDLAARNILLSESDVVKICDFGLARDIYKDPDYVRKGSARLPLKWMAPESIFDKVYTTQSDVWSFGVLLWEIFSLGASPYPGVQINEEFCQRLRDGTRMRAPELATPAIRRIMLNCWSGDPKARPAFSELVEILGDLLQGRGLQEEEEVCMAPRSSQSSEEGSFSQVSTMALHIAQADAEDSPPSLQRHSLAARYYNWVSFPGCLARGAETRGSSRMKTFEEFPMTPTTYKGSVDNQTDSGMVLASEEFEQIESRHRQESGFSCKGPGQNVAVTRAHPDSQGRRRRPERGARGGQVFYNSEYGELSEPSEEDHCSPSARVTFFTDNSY
T3 sequence (P17948 27-1338): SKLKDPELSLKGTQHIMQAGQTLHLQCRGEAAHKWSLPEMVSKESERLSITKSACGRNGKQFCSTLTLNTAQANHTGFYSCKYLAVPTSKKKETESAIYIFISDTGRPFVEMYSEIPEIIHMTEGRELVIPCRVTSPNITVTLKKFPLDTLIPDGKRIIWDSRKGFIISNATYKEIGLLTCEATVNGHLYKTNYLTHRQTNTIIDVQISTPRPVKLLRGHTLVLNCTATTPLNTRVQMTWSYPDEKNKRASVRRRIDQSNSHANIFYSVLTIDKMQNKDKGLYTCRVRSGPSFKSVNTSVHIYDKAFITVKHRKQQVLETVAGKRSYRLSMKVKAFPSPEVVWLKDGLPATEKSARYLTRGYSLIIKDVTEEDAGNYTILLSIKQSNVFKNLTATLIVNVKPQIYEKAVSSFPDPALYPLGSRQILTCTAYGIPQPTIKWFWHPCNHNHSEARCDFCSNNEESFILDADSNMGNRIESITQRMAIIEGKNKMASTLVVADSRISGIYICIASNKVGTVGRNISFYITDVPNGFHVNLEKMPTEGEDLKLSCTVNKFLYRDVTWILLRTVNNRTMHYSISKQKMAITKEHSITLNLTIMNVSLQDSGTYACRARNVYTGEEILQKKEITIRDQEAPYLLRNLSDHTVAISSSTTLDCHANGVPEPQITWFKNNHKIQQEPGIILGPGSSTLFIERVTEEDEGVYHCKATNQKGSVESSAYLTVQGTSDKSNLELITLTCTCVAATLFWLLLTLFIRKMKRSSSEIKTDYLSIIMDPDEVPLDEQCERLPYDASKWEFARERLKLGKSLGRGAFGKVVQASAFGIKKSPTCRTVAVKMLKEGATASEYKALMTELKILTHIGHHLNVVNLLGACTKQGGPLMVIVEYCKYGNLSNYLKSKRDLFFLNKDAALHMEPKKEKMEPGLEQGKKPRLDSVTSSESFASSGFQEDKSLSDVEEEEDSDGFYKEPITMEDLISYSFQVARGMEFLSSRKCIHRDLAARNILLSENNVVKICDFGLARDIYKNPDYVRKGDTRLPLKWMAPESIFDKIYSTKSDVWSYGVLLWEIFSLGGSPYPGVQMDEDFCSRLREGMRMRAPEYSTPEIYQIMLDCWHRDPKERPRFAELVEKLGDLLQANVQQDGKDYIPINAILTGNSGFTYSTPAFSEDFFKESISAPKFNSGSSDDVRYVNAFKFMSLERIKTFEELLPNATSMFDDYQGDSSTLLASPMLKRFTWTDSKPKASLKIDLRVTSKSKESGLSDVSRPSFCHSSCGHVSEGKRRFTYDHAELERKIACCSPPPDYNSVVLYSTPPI
T1 sequence (Q02763 23-1124): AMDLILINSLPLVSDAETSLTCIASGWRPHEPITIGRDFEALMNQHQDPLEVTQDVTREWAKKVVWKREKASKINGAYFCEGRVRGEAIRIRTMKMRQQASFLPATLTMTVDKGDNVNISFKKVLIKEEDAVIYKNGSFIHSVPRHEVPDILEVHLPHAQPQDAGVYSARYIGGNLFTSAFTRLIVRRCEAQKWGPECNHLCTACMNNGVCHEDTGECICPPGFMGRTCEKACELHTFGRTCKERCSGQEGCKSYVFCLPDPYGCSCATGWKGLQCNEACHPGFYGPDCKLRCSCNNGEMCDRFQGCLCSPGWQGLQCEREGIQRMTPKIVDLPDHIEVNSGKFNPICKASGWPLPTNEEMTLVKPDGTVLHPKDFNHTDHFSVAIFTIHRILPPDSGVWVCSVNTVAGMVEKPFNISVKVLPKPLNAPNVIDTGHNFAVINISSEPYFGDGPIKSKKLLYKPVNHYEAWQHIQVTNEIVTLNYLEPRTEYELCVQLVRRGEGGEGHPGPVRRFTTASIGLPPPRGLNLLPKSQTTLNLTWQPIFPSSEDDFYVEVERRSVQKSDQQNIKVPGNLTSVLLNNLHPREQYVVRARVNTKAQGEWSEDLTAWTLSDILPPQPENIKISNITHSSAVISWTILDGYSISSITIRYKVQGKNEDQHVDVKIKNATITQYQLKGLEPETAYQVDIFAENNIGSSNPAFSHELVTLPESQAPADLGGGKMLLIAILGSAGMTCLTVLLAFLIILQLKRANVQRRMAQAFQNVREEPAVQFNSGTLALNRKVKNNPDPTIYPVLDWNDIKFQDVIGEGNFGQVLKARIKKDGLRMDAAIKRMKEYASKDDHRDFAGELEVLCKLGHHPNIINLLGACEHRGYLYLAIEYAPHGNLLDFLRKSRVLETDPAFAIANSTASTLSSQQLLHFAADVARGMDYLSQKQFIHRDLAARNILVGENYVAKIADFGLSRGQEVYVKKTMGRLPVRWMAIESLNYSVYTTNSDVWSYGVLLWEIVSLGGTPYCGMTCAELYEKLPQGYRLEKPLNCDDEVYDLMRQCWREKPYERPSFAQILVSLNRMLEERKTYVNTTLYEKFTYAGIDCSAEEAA
T2 sequence (P00533 669-1210 limits assumed): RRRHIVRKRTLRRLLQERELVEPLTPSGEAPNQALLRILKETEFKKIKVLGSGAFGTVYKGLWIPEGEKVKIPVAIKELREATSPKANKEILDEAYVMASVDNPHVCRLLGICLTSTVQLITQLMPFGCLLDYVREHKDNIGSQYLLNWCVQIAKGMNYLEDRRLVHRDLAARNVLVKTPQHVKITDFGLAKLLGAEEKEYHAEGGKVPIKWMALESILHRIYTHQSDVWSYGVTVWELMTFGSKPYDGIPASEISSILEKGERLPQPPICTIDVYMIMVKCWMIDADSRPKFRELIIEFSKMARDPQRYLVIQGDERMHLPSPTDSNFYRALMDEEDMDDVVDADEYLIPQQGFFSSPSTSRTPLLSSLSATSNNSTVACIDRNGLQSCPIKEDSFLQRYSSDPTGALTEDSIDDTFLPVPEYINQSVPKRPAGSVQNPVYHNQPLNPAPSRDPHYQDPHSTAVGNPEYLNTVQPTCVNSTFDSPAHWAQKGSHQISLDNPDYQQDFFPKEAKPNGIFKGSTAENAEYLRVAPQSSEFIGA

Structure (SMILES): NC(=O)c1c(OCc2cc3c(cc2F)CCO3)nsc1NC(=O)NCCCCN1CC[C@@H](O)C1 [Compound T091, 3-[(5-fluoro-2,3-dihydrobenzofuran-6-yl)methoxy]-5-[4-[(3R)-3-hydroxypyrrolidin-1-yl]butylcarbamoylamino] isothiazole-4-carboxamide]
IC50 (EGFR): 9890 nM
IC50 (VEGFR1): 5.87 nM
IC50 (HUVEC cells): 36 nM
IC50 (VEGFR3): 6.72 nM

Structure (SMILES): CN1CCN(CCCNC(=O)Nc2snc(OCc3cc4c(cc3F)CCO4)c2C(N)=O)CC1 [Compound T101, 3-[(5-fluoro-2,3-dihydrobenzofuran-6-yl)methoxy]-5-[3-(4-methylpiperazin-1-yl)propylcarbamoylamino] isothiazole-4-carboxamide]
IC50 (TIE2): 163 nM
IC50 (EGFR): 9160 nM
IC50 (HUVEC cells): 48.6 nM

Structure (SMILES): NC(=O)c1c(OCc2cc(C(=O)NC3CC3)ccc2F)nsc1NC(=O)NCCCN1CC[C@H](F)C1 [Compound T116, 3-[[5-(cyclopropylcarbamoyl)-2-fluoro-phenyl]methoxy]-5-[3-[(3S)-3-fluoropyrrolidin-1-yl]propylcarbamoylamino]isothiazole-4-carboxamide]
IC50 (TIE2): 2360 nM
solubility at 8 h [1]: 1090 µg/mL (≈ 2.08 mM)
IC50 (EGFR): 18000 nM
IC50 (VEGFR1): 1.21 nM
IC50 (HUVEC cells): 21 nM
IC50 (VEGFR3): 4.8 nM

Structure (SMILES): NC(=O)c1c(OCc2cc(C(=O)NC3CC3)ccc2Cl)nsc1NC(=O)NCCCCN1CCCC1 [Compound T123, 3-[[2-chloro-5-(cyclopropylcarbamoyl)phenyl]methoxy]-5-(4-pyrrolidin-1-ylbutylcarbamoylamino)isothiazole-4-carboxamide]
IC50 (TIE2): 973 nM
IC50 (EGFR): 26900 nM
IC50 (HUVEC cells): 17.1 nM

Structure (SMILES): NC(=O)c1c(OCc2c(F)ccc(C(=O)NC3CC3)c2F)nsc1NC(=O)NCCCCN1CCCC1 [Compound T124, 3-[[3-(cyclopropylcarbamoyl)-2,6-difluoro-phenyl]methoxy]-5-(4-pyrrolidin-1-ylbutylcarbamoylamino)isothiazole-4-carboxamide]
IC50 (TIE2): 2890 nM
solubility at 8 h [1]: 1950 µg/mL (≈ 3.63 mM)
IC50 (EGFR): > 60000 nM
IC50 (HUVEC cells): 43.6 nM

Now from value to molecule, other results behind:

IC50 (TIE2): 1420 nM
IC50 (EGFR): 15200 nM
IC50 (VEGFR1): 1.11 nM
IC50 (VEGFR3): 0.8 nM
Structure (SMILES): NC(=O)c1c(OCc2cc(C(=O)NC3CC3)ccc2F)nsc1NC(=O)NCCCCN1CCCC1 [Compound T087, 3-[[5-(cyclopropylcarbamoyl)-2-fluoro-phenyl]methoxy]-5-(4-pyrrolidin-1-ylbutylcarbamoylamino)isothiazole-4-carboxamide]
IC50 (HUVEC cells): 45.4 nM

solubility at 8 h [1]: 2050 µg/mL (≈ 3.85 mM)
IC50 (EGFR): 8960 nM
Structure (SMILES): CN1CCN(CCCNC(=O)Nc2snc(OCc3cc(C(=O)NC4CC4)ccc3F)c2C(N)=O)CC1 [Compound T118, 3-[[5-(cyclopropylcarbamoyl)-2-fluoro-phenyl]methoxy]-5-[3-(4-methylpiperazin-1-yl)propylcarbamoylamino]isothiazole-4-carboxamide]
IC50 (HUVEC cells): 39 nM
